US11198713B2, “Agents modulating beta-catenin functions and methods thereof” (FOG PHARMACEUTICALS, INC., priority 2017, dated 2021)
Numbered stars: 1 amine (or outer) side, 2 acyl side, 3 side chain; on linkers, the order of the positions; unused ones are H or OH. Bridge positions count the residues as written; N and C are the ends. Square brackets hold non-standard residues; d marks the D form. Peptide text beside a SMILES is read from it. 3Aminoazetidine3carboxyl = O=C(C1(N[*:1])CN([*:3])C1)[*:2]; αMeDab(Me) = CN(CC[C@](C)(N[*:1])C(=O)[*:2])[*:3]; X16 = C=CCOC(=O)N1CC[C@@](N[*:1])(C(=O)[*:2])C1; X2 = O=C(OCC=CCOC(=O)[*:2])[*:1]; R8 = C=CCCCCCC[C@@](C)(N)C(=O)O

Each compound was assayed against T1, full-length beta-catenin (Axin site) (Homo sapiens, UniProt P35222) (assay: Competition fluorescence polarization assay (Axin site probe)). Conditions: competition fluorescence polarization, Table 2; read-out: in vitro FP EC50.
T1 construct: 15 nM full-length beta-catenin, 20 nM FITC labeled peptide in buffer
T1 sequence (P35222 1-781): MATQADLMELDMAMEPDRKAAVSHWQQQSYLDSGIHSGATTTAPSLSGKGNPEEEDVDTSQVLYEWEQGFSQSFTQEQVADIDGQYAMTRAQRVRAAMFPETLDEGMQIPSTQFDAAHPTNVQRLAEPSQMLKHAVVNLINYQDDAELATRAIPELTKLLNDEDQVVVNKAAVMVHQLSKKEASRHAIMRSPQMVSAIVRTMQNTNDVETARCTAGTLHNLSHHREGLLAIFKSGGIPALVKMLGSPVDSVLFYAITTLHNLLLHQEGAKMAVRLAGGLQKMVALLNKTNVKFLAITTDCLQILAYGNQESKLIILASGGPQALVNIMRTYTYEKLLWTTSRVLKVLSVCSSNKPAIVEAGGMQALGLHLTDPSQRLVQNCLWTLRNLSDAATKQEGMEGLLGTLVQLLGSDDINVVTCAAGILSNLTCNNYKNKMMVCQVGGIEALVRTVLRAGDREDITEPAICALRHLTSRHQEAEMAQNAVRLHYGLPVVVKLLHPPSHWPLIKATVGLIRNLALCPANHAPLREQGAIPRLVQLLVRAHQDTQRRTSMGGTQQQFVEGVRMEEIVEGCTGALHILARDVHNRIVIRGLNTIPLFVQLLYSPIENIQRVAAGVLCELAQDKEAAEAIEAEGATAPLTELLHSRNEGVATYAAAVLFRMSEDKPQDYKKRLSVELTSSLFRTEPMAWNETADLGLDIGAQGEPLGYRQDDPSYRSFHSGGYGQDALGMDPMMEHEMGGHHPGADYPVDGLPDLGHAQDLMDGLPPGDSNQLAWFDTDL
Type: binding
Outline: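 Competition FP: 15 nM full-length β-catenin pre-incubated 5 min with 20 nM FITC-labelled stapled Axin-site peptide, then titrated peptide added (3-fold series from 5 μM) for 15 min in the dark. Buffer 50 mM Tris pH 8.0, 250 mM NaCl, 2% glycerol, 0.5 mM EDTA; duplicate reads.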
In the case of CC[C@H](C)[C@@H]1NC(=O)[C@H](Cc2ccccn2)NC(=O)[C@H](C)NC(=O)[C@H](CC(=O)O)NC(=O)[C@H](CC(C)C)NC(=O)[C@H]([C@@H](C)CC)NC(=O)[C@](C)(NC(=O)[C@H](C)NC(C)=O)CCCCCCC=CCOC(=O)N2CC[C@@](C(=O)N[C@@H](CCC(N)=O)C(=O)N[C@H](C(=O)N[C@@H](Cc3c[nH]c4ccccc34)C(N)=O)C(C)C)(C2)NC1=O (single isomer, unassigned) [FP0559c Isomer 2, Ac-A-R8-I-L-D-A-2pyr-I-MB-Q-V-W-NH2], the EC50 is reported as over 5 µM.
In the case of CC[C@H](C)[C@@H]1NC(=O)[C@@](C)(NC(=O)[C@H](CCC(N)=O)NC(=O)[C@@H]2CCCN2C(C)=O)CCCN(C)C(=O)OCC=CCCC[C@@](C)(C(=O)N[C@@H](Cc2c[nH]cn2)C(=O)N[C@H](C(=O)N[C@@H](CCCNC(=N)N)C(=O)N[C@@H](CCCNC(=N)N)C(=O)N[C@H](C(=O)N[C@@H](Cc2c[nH]c3ccccc23)C(=O)N[C@@H](CCCNC(=N)N)C(N)=O)C(C)C)C(C)C)NC(=O)[C@H](CC(=O)O)NC(=O)[C@H](CC(C)C)NC1=O (single isomer, unassigned) [FP0780c, Ac-P-Q-MH-I-L-D-S5-H-V-R-R-V-W-R-NH2], the EC50 is reported as 0.5 to 5 µM.
For CC[C@H](C)[C@@H]1NC(=O)[C@H](Cc2ccccn2)NC(=O)[C@H](C)NC(=O)[C@H](CC(=O)O)NC(=O)[C@H](CC(C)C)NC(=O)[C@H]([C@@H](C)CC)NC(=O)[C@](C)(NC(=O)[C@H](C)NC(C)=O)CCCCCCC=CCOC(=O)N2CC[C@@](C(=O)N[C@@H](CC(N)=O)C(=O)N[C@H](C(=O)N[C@@H](Cc3c[nH]c4ccccc34)C(N)=O)C(C)C)(C2)NC1=O (single isomer, unassigned) [FP0558c Isomer 1, Ac-A-R8-I-L-D-A-2pyr-I-MB-N-V-W-NH2], the EC50 was over 5 µM.
CC[C@H](C)[C@@H]1NC(=O)[C@H](Cc2ccccn2)NC(=O)[C@H](C)NC(=O)[C@H](CC(=O)O)NC(=O)[C@H](CC(C)C)NC(=O)[C@H]([C@@H](C)CC)NC(=O)[C@](C)(NC(=O)[C@H](C)NC(C)=O)CCCCCCC=CCOC(=O)N2CC[C@@](C(=O)N[C@@H](CCC(N)=O)C(=O)N[C@H](C(=O)N[C@@H](Cc3c[nH]c4ccccc34)C(N)=O)C(C)C)(C2)NC1=O (single isomer, unassigned) [FP0559c Isomer 1, Ac-A-R8-I-L-D-A-2pyr-I-MB-Q-V-W-NH2] showed an EC50 of over 5 µM.
With CC[C@H](C)[C@@H]1NC(=O)[C@H](Cc2c[nH]cn2)NC(=O)[C@H](C)NC(=O)[C@H](CC(=O)O)NC(=O)[C@H](CC(C)C)NC(=O)[C@H]([C@@H](C)CC)NC(=O)[C@](C)(NC(=O)[C@H](C)NC(C)=O)CN(C)C(=O)OCC=CCCCCCC[C@@](C)(C(=O)N[C@@H](CCCNC(=N)N)C(=O)N[C@H](C(=O)N[C@@H](Cc2c[nH]c3ccccc23)C(N)=O)C(C)C)NC1=O (single isomer, unassigned) [FP0335c Isomer 1, Ac-A-ME-I-L-D-A-H-I-S8-R-V-W-NH2] the EC50 was 0.1 to 0.5 µM.
For CC[C@H](C)[C@@H]1NC(=O)[C@H](Cc2ccccn2)NC(=O)[C@H](C)NC(=O)[C@H](CC(=O)O)NC(=O)[C@H](CC(C)C)NC(=O)[C@H]([C@@H](C)CC)NC(=O)[C@](C)(NC(=O)[C@H](C)NC(C)=O)CCCCCCC=CCOC(=O)N2CC[C@@](C(=O)N[C@@H](C)C(=O)N[C@H](C(=O)N[C@@H](Cc3c[nH]c4ccccc34)C(N)=O)C(C)C)(C2)NC1=O (single isomer, unassigned) [FP0554c Isomer 1, Ac-A-R8-I-L-D-A-2pyr-I-MB-A-V-W-NH2], the EC50 was over 5 µM.
CC[C@H](C)[C@@H]1NC(=O)[C@H](C)NC(=O)[C@H](C)NC(=O)[C@H](CC(=O)O)NC(=O)[C@H](CC(C)C)NC(=O)[C@H]([C@@H](C)CC)NC(=O)[C@](C)(NC(=O)[C@H](C)NC(C)=O)CCCCCCC=CCOC(=O)N2CC[C@@](C(=O)N[C@@H](CCCNC(=N)N)C(=O)N[C@H](C(=O)N[C@@H](Cc3c[nH]c4ccccc34)C(N)=O)C(C)C)(C2)NC1=O [FP0408c, Ac-A-R8-I-L-D-A-A-I-MB-R-V-W-NH2] showed an EC50 of over 5 µM.
CC[C@H](C)[C@@H]1NC(=O)[C@](C)(NC(=O)[C@H](CCC(N)=O)NC(=O)[C@@H]2CCCN2C(C)=O)CCN(C)C(=O)OCC=CCCC[C@](C)(C(=O)N[C@@H](Cc2c[nH]cn2)C(=O)N[C@H](C(=O)N[C@@H](CCCNC(=N)N)C(=O)N[C@@H](CCCNC(=N)N)C(=O)N[C@H](C(=O)N[C@@H](Cc2c[nH]c3ccccc23)C(=O)N[C@@H](CCCNC(=N)N)C(N)=O)C(C)C)C(C)C)NC(=O)[C@H](CC(=O)O)NC(=O)[C@H](CC(C)C)NC1=O (single isomer, unassigned) [FP0782c, Ac-P-Q-MG-I-L-D-R5-H-V-R-R-V-W-R-NH2] showed an EC50 of 0.1 to 0.5 µM.
For CC[C@H](C)[C@@H]1NC(=O)[C@](C)(NC(=O)[C@H](CCC(N)=O)NC(=O)[C@@H]2CCCN2C(C)=O)CCCC=CCOC(=O)N(C)CC[C@](C)(C(=O)N[C@@H](Cc2c[nH]cn2)C(=O)N[C@H](C(=O)N[C@@H](CCCNC(=N)N)C(=O)N[C@@H](CCCNC(=N)N)C(=O)N[C@H](C(=O)N[C@@H](Cc2c[nH]c3ccccc23)C(=O)N[C@@H](CCCNC(=N)N)C(N)=O)C(C)C)C(C)C)NC(=O)[C@H](CC(=O)O)NC(=O)[C@H](CC(C)C)NC1=O (single isomer, unassigned) [FP0776c, Ac-P-Q-R5-I-L-D-MG-H-V-R-R-V-W-R-NH2], the EC50 was 0.5 to 5 µM.
CC[C@H](C)[C@@H]1NC(=O)[C@H](Cc2c[nH]cn2)NC(=O)[C@H](C)NC(=O)[C@H](CC(=O)O)NC(=O)[C@H](CC(C)C)NC(=O)[C@H]([C@@H](C)CC)NC(=O)C2(NC(=O)[C@H](C)NC(C)=O)CN(C2)C(=O)OCC=CCOC(=O)N(C)CC[C@@](C)(C(=O)N[C@@H](CCCNC(=N)N)C(=O)N[C@H](C(=O)N[C@@H](Cc2c[nH]c3ccccc23)C(N)=O)C(C)C)NC1=O [FP0611c, Ac-A-MA-I-L-D-A-H-I-MF-R-V-W-NH2] (Ac-A[3Aminoazetidine3carboxyl]ILDAHI[αMeDab(Me)]RVW-NH2; linker 2-9 via X2) was tested, and the EC50 was under 0.1 µM.
CC[C@H](C)[C@@H]1NC(=O)[C@H](Cc2ccccn2)NC(=O)[C@H](C)NC(=O)[C@H](CC(=O)O)NC(=O)[C@H](CC(C)C)NC(=O)[C@H]([C@@H](C)CC)NC(=O)[C@](C)(NC(=O)[C@H](C)NC(C)=O)CCCCCCC=CCOC(=O)N2CC[C@@](C(=O)N[C@@H](CC3CCC3)C(=O)N[C@H](C(=O)N[C@@H](Cc3c[nH]c4ccccc34)C(N)=O)C(C)C)(C2)NC1=O (single isomer, unassigned) [FP0565c Isomer 2, Ac-A-R8-I-L-D-A-2pyr-I-MB-Cba-V-W-NH2] gave an EC50 of over 5 µM.
In the case of CC[C@H](C)[C@@H]1NC(=O)[C@H](Cc2ccccn2)NC(=O)[C@H](C)NC(=O)[C@H](CC(=O)O)NC(=O)[C@H](CC(C)C)NC(=O)[C@H]([C@@H](C)CC)NC(=O)[C@](C)(NC(=O)[C@H](C)NC(C)=O)CCCCCCC=CCOC(=O)N2CC[C@@](C(=O)N[C@@H](Cc3c[nH]c4ccccc34)C(=O)N[C@H](C(=O)N[C@@H](Cc3c[nH]c4ccccc34)C(N)=O)C(C)C)(C2)NC1=O (single isomer, unassigned) [FP0563c Isomer 1, Ac-A-R8-I-L-D-A-2pyr-I-MB-W-V-W-NH2], the EC50 is reported as over 5 µM.
For C=CCCCCCC[C@@](C)(NC(=O)[C@H](C)NC(C)=O)C(=O)N[C@H](C(=O)N[C@@H](CC(C)C)C(=O)N[C@@H](CC(=O)O)C(=O)N[C@@H](C)C(=O)N[C@@H](Cc1c[nH]cn1)C(=O)N[C@H](C(=O)N[C@@]1(C(=O)N[C@@H](CCCNC(=N)N)C(=O)N[C@H](C(=O)N[C@@H](Cc2c[nH]c3ccccc23)C(N)=O)C(C)C)CCN(C(=O)OCC=C)C1)[C@@H](C)CC)[C@@H](C)CC [FP0217u, Ac-A-R8-I-L-D-A-H-I-MB-R-V-W-NH2] (Ac-A[R8]ILDAHI[X16]RVW-NH2), the EC50 was under 0.1 µM.
